Assay results reported in patent publication US10988523B2, “Modified lipidated Relaxin B chain peptides and their therapeutic use” (Sanofi, priority 2018, dated 2021).
*1 amine or outer side, *2 acyl side, *3 side chain or, on linkers, in order; H or OH if unused. Where a SMILES comes first, the peptide text is derived from it. Side-chain parts run from the residue outwards. [ ]: non-standard residue; d: D form. The star is where a group is joined. PEG8 = NCCOCCOCCOCCOCCOCCOCCOCCOCCC(=O)O; γGlu = O=C(O)[C@H](CCC(=O)[*:2])N[*:1]; Pentadecanoyl = CCCCCCCCCCCCCCC(=O)*; Stearoyl = CCCCCCCCCCCCCCCCCC(=O)*; Palmitoyl = CCCCCCCCCCCCCCCC(=O)*; αMeK = C[C@](N)(CCCCN)C(=O)O; Nle = CCCC[C@H](N)C(=O)O; AEEA = NCCOCCOCC(=O)O; Aib = CC(C)(N)C(=O)O

Molecular target: T1, RXFP1 (Homo sapiens, UniProt Q9HBX9)
T1 construct: OVCAR5 cells expressing endogenous RXFP1; endogenous in cells; host or cells: OVCAR5 cells
T1 sequence (Q9HBX9 1-757): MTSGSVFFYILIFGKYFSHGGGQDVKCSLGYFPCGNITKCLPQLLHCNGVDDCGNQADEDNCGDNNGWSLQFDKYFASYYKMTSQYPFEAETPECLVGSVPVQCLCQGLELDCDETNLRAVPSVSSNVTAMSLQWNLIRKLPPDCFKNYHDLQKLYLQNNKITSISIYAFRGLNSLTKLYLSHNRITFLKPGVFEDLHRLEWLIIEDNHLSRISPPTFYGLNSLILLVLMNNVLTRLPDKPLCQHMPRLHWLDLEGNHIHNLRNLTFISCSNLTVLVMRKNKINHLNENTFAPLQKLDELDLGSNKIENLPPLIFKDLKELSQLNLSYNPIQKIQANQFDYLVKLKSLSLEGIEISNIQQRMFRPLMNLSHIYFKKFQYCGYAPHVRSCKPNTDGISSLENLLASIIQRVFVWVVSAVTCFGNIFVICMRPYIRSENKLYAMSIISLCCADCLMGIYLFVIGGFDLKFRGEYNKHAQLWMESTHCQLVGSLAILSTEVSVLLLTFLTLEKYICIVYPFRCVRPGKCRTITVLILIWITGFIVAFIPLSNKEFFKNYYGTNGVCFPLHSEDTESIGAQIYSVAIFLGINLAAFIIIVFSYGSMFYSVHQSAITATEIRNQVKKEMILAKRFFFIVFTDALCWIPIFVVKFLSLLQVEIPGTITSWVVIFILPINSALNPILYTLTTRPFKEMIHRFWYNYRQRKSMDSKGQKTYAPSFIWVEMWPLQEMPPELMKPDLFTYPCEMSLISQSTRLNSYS
Experiment: OVCAR5 cAMP assay (HTRF), RXFP1 agonist activity
Assay type: cell-based
Details: for Emax: OVCAR-5, maximal cAMP relative to H2-relaxin maximum (100%), read-out: EMax, OVCAR 5 cells (cAMP)
Outline: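 OVCAR5 cells (endogenous RXFP1) pretreated 40 min at 37° C with 1 mM IBMX, then exposed to peptides in serum-free medium for 30 min at 37° C. Lysate cAMP read by HTRF; EC50 from variable-slope sigmoidal fit; Emax as % of H2-relaxin maximal cAMP in same run.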

CCCCCCCCCCCCCCCC(=O)N[C@@H](CCC(=O)N[C@@H](CCC(=O)N[C@@H](CCC(=O)NCCCC[C@H](NC(=O)COCCOCCNC(=O)COCCOCCNC(=O)COCCOCCNC(=O)[C@H](CCCCNC(C)=O)NC(=O)[C@H](CCCCN)NC(=O)[C@H](CCCNC(=N)N)NC(=O)C(C)(C)NC(=O)[C@H](CO)NC(=O)[C@H](Cc1ccc(O)cc1)NC(=O)[C@@H](NC(=O)[C@H](CO)NC(=O)[C@H](CCC(N)=O)NC(=O)CNC(=O)[C@H](CCC(=O)O)NC(=O)C(C)(C)NC(=O)C(C)(C)NC(=O)[C@@H](NC(=O)[C@H](CCCCNC(C)=O)NC(=O)[C@H](C)NC(=O)[C@H](CCCNC(=N)N)NC(=O)[C@@H](NC(=O)[C@H](CCCCN)NC(=O)[C@H](CCC(=O)O)NC(=O)[C@H](CCCNC(=N)N)NC(=O)CNC(=O)[C@H](CCC(=O)O)NC(=O)[C@H](CC(C)C)NC(C)=O)C(C)C)[C@@H](C)CC)[C@@H](C)O)C(N)=O)C(=O)O)C(=O)O)C(=O)O [compound 179] (Ac-LEGREKVRAK(Ac)I[Aib][Aib]EGQSTYS[Aib]RKK(Ac)[AEEA][AEEA][AEEA]K([γGlu-γGlu-γGlu-Palmitoyl])-NH2)
Emax: 80%

CCCCCCCCCCCCCCCCCC(=O)N[C@@H](CCC(=O)N[C@@H](CCC(=O)N[C@@H](CCC(=O)N[C@@H](CCC(=O)NCCOCCOCC(=O)NCCOCCOCC(=O)NCCOCCOCC(=O)NCCOCCOCC(=O)NCCCC[C@H](NC(=O)[C@H](CCCCNC(C)=O)NC(=O)[C@H](CCCCN)NC(=O)[C@H](CCCNC(=N)N)NC(=O)C(C)(C)NC(=O)[C@H](CO)NC(=O)[C@H](Cc1c[nH]c2ccccc12)NC(=O)[C@@H](NC(=O)[C@H](CO)NC(=O)[C@H](CCC(N)=O)NC(=O)CNC(=O)[C@H](CCC(=O)O)NC(=O)C(C)(C)NC(=O)C(C)(C)NC(=O)[C@@H](NC(=O)[C@H](CCCCNC(C)=O)NC(=O)[C@H](C)NC(=O)[C@H](CCCNC(=N)N)NC(=O)[C@@H](NC(=O)[C@H](CCCCN)NC(=O)[C@H](CCC(=O)O)NC(=O)[C@H](CCCNC(=N)N)NC(=O)CNC(=O)[C@H](CCC(=O)O)NC(=O)[C@H](CC(C)C)NC(C)=O)C(C)C)[C@@H](C)CC)[C@@H](C)O)C(N)=O)C(=O)O)C(=O)O)C(=O)O)C(=O)O [compound 180] (Ac-LEGREKVRAK(Ac)I[Aib][Aib]EGQSTWS[Aib]RKK(Ac)K([AEEA-AEEA-AEEA-AEEA-γGlu-γGlu-γGlu-γGlu-Stearoyl])-NH2)
Emax: 84%

CCCCCCCCCCCCCCCC(=O)N[C@@H](CCC(=O)N[C@@H](CCC(=O)N[C@@H](CCC(=O)NCCCC[C@H](NC(=O)CCOCCOCCOCCOCCOCCOCCOCCOCCNC(=O)[C@H](CCCCNC(C)=O)NC(=O)[C@H](CCCCN)NC(=O)[C@H](CCCNC(=N)N)NC(=O)C(C)(C)NC(=O)[C@H](CO)NC(=O)[C@H](Cc1c[nH]c2ccccc12)NC(=O)[C@@H](NC(=O)[C@H](CO)NC(=O)[C@H](CCCC)NC(=O)CNC(=O)[C@H](CCC(=O)O)NC(=O)C(C)(C)NC(=O)C(C)(C)NC(=O)[C@@H](NC(=O)[C@H](CCCCNC(C)=O)NC(=O)[C@H](C)NC(=O)[C@H](CCCNC(=N)N)NC(=O)[C@@H](NC(=O)[C@H](CCCCN)NC(=O)[C@H](CCC(=O)O)NC(=O)[C@H](CCCNC(=N)N)NC(=O)CNC(=O)[C@H](CCC(=O)O)NC(=O)[C@H](CC(C)C)NC(C)=O)C(C)C)[C@@H](C)CC)[C@@H](C)O)C(N)=O)C(=O)O)C(=O)O)C(=O)O [compound 181] (Ac-LEGREKVRAK(Ac)I[Aib][Aib]EG[Nle]STWS[Aib]RKK(Ac)[PEG8]K([γGlu-γGlu-γGlu-Palmitoyl])-NH2)
Emax: 79%

CCCCCCCCCCCCCCC(=O)N[C@@H](CCC(=O)N[C@@H](CCC(=O)N[C@@H](CCC(=O)N[C@@H](CCC(=O)NCCCC[C@H](NC(=O)COCCOCCNC(=O)COCCOCCNC(=O)COCCOCCNC(=O)COCCOCCNC(=O)[C@H](CCCCNC(C)=O)NC(=O)[C@H](C)NC(=O)[C@H](CCCNC(=N)N)NC(=O)[C@](C)(CCCCN)NC(=O)[C@H](CO)NC(=O)[C@H](Cc1ccccc1)NC(=O)[C@@H](NC(=O)[C@H](CO)NC(=O)[C@H](CCC(N)=O)NC(=O)CNC(=O)[C@H](CCC(=O)O)NC(=O)C(C)(C)NC(=O)C(C)(C)NC(=O)[C@@H](NC(=O)[C@H](CCCCNC(C)=O)NC(=O)[C@H](C)NC(=O)[C@H](CCCNC(=N)N)NC(=O)[C@@H](NC(=O)[C@H](CCCCN)NC(=O)[C@H](CCC(=O)O)NC(=O)[C@H](CCCNC(=N)N)NC(=O)CNC(=O)[C@H](CCC(=O)O)NC(=O)[C@H](CC(C)C)NC(C)=O)C(C)C)[C@@H](C)CC)[C@@H](C)O)C(N)=O)C(=O)O)C(=O)O)C(=O)O)C(=O)O [compound 182] (Ac-LEGREKVRAK(Ac)I[Aib][Aib]EGQSTFS[αMeK]RAK(Ac)[AEEA][AEEA][AEEA][AEEA]K([γGlu-γGlu-γGlu-γGlu-Pentadecanoyl])-NH2)
EC50 (OVCAR5 cells, cAMP HTRF, read-out: EC50 (nM), OVCAR 5 cells (cAMP)): 0.19 nM
Emax: 99%
